The text below walks through data of US6949679B1, “Polyamine transport inhibitors” (Universite Laval, priority 1998, dated 2005).

Format in all cases: cell-based, human
Data set [1] relates to polyamine transporter. In words: Inhibition of [3H]putrescine uptake in ZR-75-1 cells. As to conditions: for Mode of inhibition of [3H]putrescine uptake: Lineweaver-Burke, DESC up to 100 μM, MESC up to 200 μM; for Ki: ZR-75-1 cells. The method, then:
The rate of putrescine and spermidine transport was determined in ZR-75-1 cells incubated in serum-free RPMI 1640 medium as described (Lessard, M., Zhao, C., Singh, S. M. and Poulin, R. 1995. J. Biol. Chem. 270: 1685-1694), using [^3H]putrescine (30 Ci/mol) and [^3H]spermidine (20 Ci/mol), respectively as substrates for a 20 minute-assay period. Spermine uptake was similarly determined, using 1 μM [^14C]spermine (32 Ci/mol) as substrate. Uptake activity was expressed per amount of DNA as fluorometrically determined using 3,4-diaminobenzoic acid (Simard, J., Dauvois, S., Haagensen, D. E., Lėvesque, C., Mėrand, Y. and Labrie, F. 1990. Endocrinology, 126: 3223-3231). For the determination of spermidine uptake activity in CHO-K1 cells, 80% confluent cell monolayers were rinsed twice with PBS and incubated for 20 minutes at 37° C. in 400 μl of buffer A (20 mM Tris-HCl, pH 7.4; 0.42 mM CaCl2; 0.41 mM MgSO4; 103 mM NaCl; 5.7 mM KCl; 1.1 mM D-glucose) containing 5 μM [^3H]spermidine (20 Ci/mol). Cell cultures were then washed twice with 1 ml PBS containing 5.7 mM sym-norspermidine. Cells were then lysed with 200-μl aliquot of 1 N NaOH and incubated for 30 minutes at 60° C. After neutralization with 200 μl of 1 N HCl, radioactivity was determined from a 250-μl of the cell lysate by scintillation counting. Uptake activity was expressed per amount of total cellular protein as determined by the method of Bradford (Bradford, M. M. 1976. Anal. Biochem. 72: 248-254). Non-specific binding of radioactive substrate was similarly determined in parallel for both cell lines after a 15 second-incubation with 400 μl of ice-cold uptake solution.
Kinetic analysis of polyamine transport was performed by determining uptake activity in the presence of a 3 μM [^3H]putrescine or 1 μM [^3H]spermidine plus increasing concentrations of nonradioactive substrate. K[…] Ki and Vmax values were then estimated by Lineweaver-Burke analysis. For competitive inhibitors, Ki values were also estimated by measuring uptake activity in the presence of logarithmically increasing concentrations of antagonist, and using the Cheng-Prusoff equation (Cheng, Y.-C. and Prusoff, W. H. 1973. Biochem. Pharmacol. 22: 3099-3108) by iterative curve fitting for a sigmoidal curve. For mixed competitive/noncompetitive inhibition, two methods were used to calculate kinetic constants. First, the equation [drawing 2] where v, s, and i are the transport velocity, substrate concentration and inhibitor concentration respectively, was used to calculate the inhibition constants for inhibitor/carrier complex formation (Ki) and carrier/inhibitor/substrate complex formation (Ki′) (Dixon, M. and Webb, E. C. 1976. Enzymes, 3rd Ed., Academic Press, San Diego, Calif.). Alternatively, the value of Ki for a mixed competitor/non-competitor was estimated from the intersect of equations v^−1 vs i at two different substrate concentrations (Dixon, M. and Webb, E. C. 1976. Enzymes, 3rd Ed., Academic Press, San Diego, Calif.). Intracellular Accumulation
In order to evaluate the effectiveness of dimeric triamines as polyamine transport inhibitors, we synthesized N,N′-bis(3-aminopropyl),N,N′-bis(4-aminobutyl)cystamine or BABAC (structure 1, FIG. 25; FIG. 31), and its thiol form N-(3-aminopropyl),N-(4-aminobutyl)cysteamine or AAC (FIG. 31) according to Scheme 4 described above (FIG. 30), using spermidine as a precursor polyamine. The ability of BABAC and AAC to inhibit the intracellular uptake of radio-labeled putrescine and spermidine in the ZR-75-1 human breast cancer cell line was then determined according to standard published procedures (Lessard, et al. and Poulin, et al.) Briefly, ZR-75-1 cells were grown for four days in twenty-four well plates in RPMI 1640 medium supplemented with 10% fetal bovine serum.

Data set [2] deals with ZR-75-1 cells. The data set is described as follows: Intracellular accumulation of inhibitor and polyamine contents (HPLC) in ZR-75-1 cells.
Data set [3] has as its system ZR-75-1 cells. In words: Effect on ZR-75-1 cell proliferation (11 days, DNA content). As to the method:
For growth studies, ZR-75-1 cells were cultured in MEZR medium or in phenol red-free RPMI 1640 supplemented with 2 mM L-glutamine, 1 mM sodium pyruvate, 15 mM Hepes, antibiotics, 1 nM 17β-estradiol, 0.5 μg of bovine insulin per ml and 5% (v/v) charcoal-treated fetal bovine serum (SD medium), as indicated in the text. When polyamines or polyamine analogs were added to serum-containing media, 1 mM aminoguanidine was added to inhibit bovine serum amine oxidase (BSAO) activity (Morgan, D. M. L. 1989, in The Physiology of Polyamines (Bachrach, U., and Heimer, Y. M. eds) Vol. I, pp. 203-229, CRC Press, Boca Raton). The effect of the transport inhibitors on cell growth was measured by incubating ZR-75-1 cells for 11 days in medium supplemented with antagonist, polyamines and/or 1 mM DFMO as indicated, followed by colorimetric determination of DNA content with 3,4-diaminobenzoic acid (Simard, J., Dauvois, S., Haagensen, D. E., Lėvesque C., Mėrand, Y. and Labriė, F. 1990. Endocrinology 126: 3223-3231). Medium was changed every other day in these experiments because of the slow reaction of the compound with an unknown component present in the IMEM and RPMI 1640 medium formulation.
The biocompatibility of DESC, MESC, and DEASC was thus evaluated during a long-term (11-day) incubation with ZR-75-1 cells grown in RPMI 1640 containing 10% (v/v) FBS in the absence and presence of 1 mM aminoguanidine. […] Weak growth inhibition caused by the mixed MESC-cysteamine disulfide, however, apparently involved degradation by a copper amine oxidase.

Where [4] appears, read: this work, DEASC: Ki of mixed competitive/non-competitive model, read-out: Ki, putrescine transport.
Setting [5] is: 200 μM compound + 200 μM CHX, 1 h.
The mark [6] stands for this setting: 200 μM compound + 200 μM CHX, 6 h.

Like-named read-outs stand apart in the source and are kept apart here.

Consider `NCCCNCCCC(NCCCN)C(=O)NCCSSCCNC(=O)C(CCCNCCCN)NCCCN` (stereo not drawn) [DESC, 2,2′-dithiobis(N-ethyl-spermine-5-carboxamide)], for which, in data set [1], the “Mode of inhibition of [3H]putrescine uptake” value was “pure competitive inhibitors”. Also, the Ki in data set [1] (FIG. 32, 20 μM and 3 μM substrate, respectively, read-out: Apparent Ki, putrescine uptake) turned out to be 0.54 µM; in data set [1] (setting [4]) it was 1.6 ± 0.5 µM. For the same compound, the Spermine intracellular content in data set [2] (50 μM compound, 1 h) is on record as 8.27 ± 0.81 nmol/mg protein; in data set [2] (setting [5]), 9.57 ± 0.31 nmol/mg protein; in data set [2] (setting [6]) it was 9.55 ± 0.13 nmol/mg protein; in data set [2] (200 μM compound, 1 h), 8.77 ± 0.79 nmol/mg protein; in data set [2] (200 μM compound, 6 h), 8.66 ± 0.26 nmol/mg protein. Further, the “DESC accumulation as % of accumulation measured for spermine under identical conditions” value in data set [2] (200 μM DESC, 6-hour incubation) is given as “about 1.5%”. The DESC intracellular content in data set [2] (setting [5]) is on record as <0.01 nmol/mg protein; in data set [2] (setting [6]), 0.10 nmol/mg protein. Moreover, the Spermidine intracellular content in data set [2] (setting [5]) amounted to 0.75 ± 0.04 nmol/mg protein. Further, the “Effect on cell growth” value in data set [3] (50 μM, with or without 1 mM aminoguanidine) is recorded as “only mildly growth inhibitory”; in data set [3] (200 μM), “abrupt, aminoguanidine-resistant increase in toxicity”.

With `NCCCNCCCC(NCCCN)C(=O)NCCS` (stereo not drawn) [MESC, N-(2-mercaptoethyl)spermine-5-carboxamide], the “Mode of inhibition of [3H]putrescine uptake” value in data set [1] is recorded as “pure competitive inhibitors”. For the same compound, the Ki in data set [1] (setting [4]) was determined as 22 ± 3 µM. Moreover, the Spermine intracellular content is 7.77 ± 0.06 nmol/mg protein in data set [2] (50 μM compound, 1 h); 8.13 ± 0.17 nmol/mg protein in data set [2] (50 μM compound, 6 h); 8.93 ± 0.53 nmol/mg protein in data set [2] (200 μM compound, 1 h); 8.32 ± 0.43 nmol/mg protein in data set [2] (200 μM compound, 6 h). Besides, the “Decrease in cell growth” value in data set [3] (200 μM, not blocked by aminoguanidine) worked out at 35%.
